These are literature values, as cited in patent US9642356B2, “Maturation or ripening inhibitor release from polymer, fiber, film, sheet or packaging” (Cellresin Technologies, LLC, priority 2009, dated 2017).

Take `CC1=CC1` [Example 1-MCP, 1-methylcyclopropene]: the “activity for inhibiting ethylene generation” value with ethylene generation is reported as “at least some measurable activity”.
As for `C1=CCC=C1` [Cyclopentadiene], the “blocking of ethylene binding” value in the data set with ethylene binding site is listed as “effective blocking agent for ethylene binding”.
`C=CCC` [Example 1-butene, 1-butene]: in the data set on ethylene generation, the “activity for inhibiting ethylene generation” value is reported as “at least some measurable activity”.
